tested on: HCT116 cells; assay: Cell viability assay (CellTiter-Glo, 72 hours) in HCT116 human colorectal cancer cells; assay type: cell-based; conditions: Homo sapiens, HCT-116; Table 5; HCT116, 72 hours; read-out: Activity
In short: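 2,000 cells/well adhered overnight, then compound added by digital dispenser with DMSO normalized to 0.5%. Viability read after 72 h at 37 °C by ATP-based CellTiter-Glo luminescence. IC50 from ten-point curves baseline-corrected to vehicle, five-parameter asymmetric least-squares fit.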

`CC#CCN1C(=O)c2ccccc2Cc2cc(Nc3nccnc3C#N)ccc21` [3-((5-(But-2-yn-1-yl)-6-oxo-6,11-dihydro-5H-dibenzo[b,e]azepin-2-yl)amino) pyrazine-2-carbonitrile] was tested. Which IC50 did it give?
The IC50 was less than 500 nM.

For `CC#CCN1C(=O)c2ccc(C#N)cc2Sc2cc(Nc3nnccc3C#N)ccc21` [10-(But-2-yn-1-yl)-7-((4-cyanopyridazin-3-yl)amino)-11-oxo-10,11-dihydrodibenzo[b,f][1,4]thiazepine-3-carbonitrile], which IC50 is on record?
The IC50 was less than 500 nM.

How did the IC50 turn out when `CC#CCN1C(=O)c2ccccc2Cc2cc(Nc3nccc(C#N)c3C)ccc21` [2-((5-(But-2-yn-1-yl)-6-oxo-6,11-dihydro-5H-dibenzo[b,e]azepin-2-yl)amino)-3-methylisonicotinonitrile] was run?
The IC50 was less than 500 nM.

For `CCC/C=C/CN1C(=O)c2ccccc2Sc2cc(Nc3ncccn3)ccc21` [(E)-10-(Hex-2-en-1-yl)-7-(pyrimidin-2-ylamino)dibenzo[b,f][1,4]thiazepin-11 (10H)-one], which IC50 is on record?
Its IC50 is 1000 to 5000 nM.

same assay, conditions: Homo sapiens, HCT-116; Table 6; HCT116, 72 hours; read-out: Activity

For `CC#CCN1C(=O)c2ccccc2Sc2cc(NC3CC(CO)C3)ccc21` (stereo not drawn) [Table 6: —CH2CCMe; 3-HOCH2-cBu; CH/CH; S, 10-(But-2-yn-1-yl)-7-((3-(hydroxymethyl)cyclobutyl)amino)dibenzo[b,f][1,4]thiazepin-11 (10H)-one], which IC50 is on record?
Its IC50 is less than 500 nM.

same assay, conditions: Table 1; HCT116, 72 hours; read-out: Activity

How did the IC50 turn out when `CC#CCN1C(=O)c2ccc(Cl)cc2Sc2cc(NC(=O)N3CCCCC3)ccc21` was run?
Its IC50 is less than 500 nM.

same assay, conditions: Table 3; HCT116, 72 hours; read-out: Activity

Which IC50 does the source give for `CC#CCN1C(=O)c2ccccc2Sc2cc(NC(=O)Nc3cccc(OCF)c3)ccc21` [Table 3: —CH2CCMe; 3-FH2COPh; CH/CH] here?
The IC50 was less than 500 nM.

same assay, conditions: Table 4; HCT116, 72 hours; read-out: Activity

For `CC#CCN1C(=O)c2ccccc2Sc2cc(NC(=S)NC3COC3)ccc21` [Table 4: —CH2CCMe; oxetan-3-yl; CH], which IC50 is on record?
The IC50 was less than 500 nM.

same assay, conditions: Table 5; HCT116, 72 hours; read-out: Activity

For `C#CCN1C(=O)c2ccccc2Sc2cc(Nc3nc(C)cnc3C)cnc21`, which IC50 is on record?
Its IC50 is less than 500 nM.

With `C#CCN1C(=O)c2ccccc2Sc2cc(Nc3ncc(C)nc3C)cnc21` as the compound, how does the IC50 read?
Its IC50 is less than 500 nM.

Which IC50 does the source give for `CC#CCN1C(=O)c2ccccc2Sc2cc(Nc3nccc(C)c3F)cnc21` here?
Its IC50 is less than 500 nM.

How did the IC50 turn out when `CC#CCN1C(=O)c2ccccc2Sc2cc(Nc3nnccc3C)cnc21` was run?
The IC50 was less than 500 nM.

Which IC50 does the source give for `CC#CCN1C(=O)c2ccccc2Sc2cc(Nc3ncccc3C(=O)OC)ccc21` [Methyl 2-((10-(but-2-yn-1-yl)-11-oxo-10,11-dihydrodibenzo[b,f][1,4]thiazepin-7-yl)amino) nicotinate] here?
Its IC50 is 1000 to 5000 nM.

same assay, conditions: Table 6; HCT116, 72 hours; read-out: Activity

Which IC50 does the source give for `CC#CCN1C(=O)c2ccccc2Sc2cc(NC34CC(OC)(C3)C4)ccc21` here?
Its IC50 is less than 500 nM.

For `CC#CCN1C(=O)c2ccccc2Cc2cc(NCCCOC)ccc21` [Table 6: —CH2CCMe; (CH2)3OMe; CH/CH; CH2], which IC50 is on record?
The IC50 was less than 500 nM.

`CC#CCN1C(=O)c2ccccc2Sc2cc(NCCCO)ccc21` [Table 6: —CH2CCMe; (CH2)3OH; CH/CH; S] was tested. Which IC50 did it give?
Its IC50 is less than 500 nM.

same assay, conditions: Table 7; cell viability assay, CellTiter-Glo, 72 hours; scaffold drawing 42 with R^2, R^3, X/Y, Z; read-out: Activity

How did the IC50 turn out when `C#Cc1ccc(C(=O)Nc2ccc3c(c2)Sc2ccccc2C(=O)N3CCOC)cn1` [—(CH2)2OMe; 6-(HCC)pyrid-3-yl; CH/CH; S] was run?
Its IC50 is 1000 to 5000 nM.

For `COCCN1C(=O)c2ccccc2Sc2cc(NC(=O)c3ccncc3)ccc21` [—(CH2)2OMe; pyrid-4-yl; CH/CH; S], which IC50 is on record?
Its IC50 is 1000 to 5000 nM.

For `C#CCOCCN1C(=O)c2ccccc2Sc2cc(NC(=O)c3ccoc3)ccc21` [—(CH2)2OCH2CCH; furan-3-yl; CH/CH; S], which IC50 is on record?
Its IC50 is less than 500 nM.

How did the IC50 turn out when `COCCN1C(=O)c2ccccc2Sc2cc(NC(=O)c3ccc4ocnc4c3)ccc21` was run?
Its IC50 is less than 500 nM.

With `COCCN1C(=O)c2ccccc2Sc2cc(NC(=O)C3CCCCCC3)ccc21` [—(CH2)2OMe; cHeptyl; CH/CH; S] as the compound, how does the IC50 read?
Its IC50 is 1000 to 5000 nM.

How did the IC50 turn out when `COCCN1C(=O)c2ccccc2Sc2cc(NC(=O)c3cccc(OC)c3)ccc21` [—(CH2)2OMe; 3-MeOPh; CH/CH; S] was run?
Its IC50 is less than 500 nM.

same assay, conditions: Table 8; analogs of scaffold drawing 43 defined by R^2, R^3, X/Y, W; read-out: Activity (IC50 class, cell viability assay)

Which IC50 does the source give for `CC#CCN1C(=O)c2ccccc2Sc2cc(NC(=O)c3cccc(OC)c3)ccc21` [—CH2CCMe; 3-MeOPh; CH/CH; CH] here?
Its IC50 is less than 500 nM.

`CC#CCN1C(=O)c2cc(F)ccc2Sc2cc(NC(=O)C34CC(O)(C3)C4)cnc21` was tested. Which IC50 did it give?
The IC50 was less than 500 nM.

Which IC50 does the source give for `CC#CCN1C(=O)c2ccccc2Sc2cc(NC(=O)C(C)CCOC)cnc21` (stereo not drawn) [—CH2CCMe; MeO(CH2)2CHMe-; CH/CH; N] here?
Its IC50 is less than 500 nM.

`CON=C1CC2(C1)CC(C(=O)Nc1cnc3c(c1)Sc1cc(Cl)ccc1C(=O)N3CC#CCl)C2` (stereo not drawn) was tested. Which IC50 did it give?
Its IC50 is less than 500 nM.

Which IC50 does the source give for `COc1ccc(C(=O)Nc2ccc3c(c2)Sc2ccccc2C(=O)N3CC#CC(F)(F)F)cc1` [—CH2CCCF3; 4-MeOPh; CH/CH; CH] here?
The IC50 was less than 500 nM.

Which IC50 does the source give for `CC#CCN1C(=O)c2ccccc2Sc2cc(NC(=O)C34CC(C)(C3)C4)cnc21` here?
Its IC50 is less than 500 nM.

With `CC#CCN1C(=O)c2cc(F)ccc2Sc2cc(NC(=O)CCCO)ccc21` [—CH2CCMe; (CH2)3OH; CH/CF; CH] as the compound, how does the IC50 read?
Its IC50 is less than 500 nM.

How did the IC50 turn out when `CC12CC(C(=O)Nc3cnc4c(c3)Sc3ccccc3C(=O)N4CC#CC3CC3)(C1)C2` was run?
Its IC50 is less than 500 nM.

How did the IC50 turn out when `CC#CCN1C(=O)c2ccc(Cl)cc2Sc2cc(NC(=O)[C@H]3C[C@@H](OC)C3)ccc21` [—CH2CCMe; cis-3-MeOcBu; CCI/CH; CH] was run?
Its IC50 is less than 500 nM.

Which IC50 does the source give for `CC#CCN1C(=O)c2ccccc2Sc2cc(NC(=O)[C@@H]3C[C@H]3C(=O)OC)ccc21` (relative stereo) [—CH2CCMe; trans-2-MeO2C-cPr; CH/CH; CH] here?
The IC50 was less than 500 nM.

For `CC#CCN1C(=O)c2cc(F)ccc2Sc2cc(NC(=O)C3CC3COC)ccc21` (stereo not drawn) [—CH2CCMe; trans-2-MeOCH2-cPr; CH/CF; CH], which IC50 is on record?
The IC50 was less than 500 nM.

`C#CCN1C(=O)c2ccccc2Sc2cc(NC(=O)C3CC4(CC(=NOC)C4)C3)cnc21` (stereo not drawn) was tested. Which IC50 did it give?
The IC50 was less than 500 nM.

`CC#CCN1C(=O)c2cc(F)ccc2Sc2cc(NC(=O)C3COC3)ccc21` [—CH2CCMe; oxetan-3-yl; CH/CF; CH] was tested. Which IC50 did it give?
Its IC50 is less than 500 nM.

How did the IC50 turn out when `O=C(C=CCO)Nc1cnc2c(c1)Sc1ccccc1C(=O)N2CC#CC(F)(F)F` [—CH2CCCF3; CH—═CHCH2OH; CH/CH; N] was run?
Its IC50 is less than 500 nM.

For `CC#CCN1C(=O)c2cc(F)ccc2Sc2cc(NC(=O)[C@H]3C[C@@H](OC)C3)ccc21` [—CH2CCMe; cis-3-MeOcBu; CH/CF; CH], which IC50 is on record?
Its IC50 is less than 500 nM.

For `CC#CCN1C(=O)c2ccccc2Sc2cc(NC(=O)C3CC4(CC(=NO)C4)C3)ccc21` (stereo not drawn), which IC50 is on record?
The IC50 was less than 500 nM.

How did the IC50 turn out when `O=C(Nc1cnc2c(c1)Sc1ccccc1C(=O)N2CC#CC1CC1)C1CC2(CC(O)C2)C1` (stereo not drawn) was run?
The IC50 was less than 500 nM.

Which IC50 does the source give for `CC#CCN1C(=O)c2cc(F)ccc2Sc2cc(NC(=O)C=CCOC)cnc21` [—CH2CCMe; CH—═CHCH2OMe; CH/CF; N] here?
Its IC50 is less than 500 nM.

`CC#CCN1C(=O)c2cc(F)ccc2Sc2cc(NC(=O)C3CC4(CC(=NOC)C4)C3)ccc21` (stereo not drawn) was tested. Which IC50 did it give?
The IC50 was less than 500 nM.

`CC#CCN1C(=O)c2ccc(C#N)cc2Sc2cc(NC(=O)[C@@H]3C[C@H]3COC)cnc21` (relative stereo) [—CH2CCMe; trans-2-MeOCH2-cPr; CCN/CH; N] was tested. Which IC50 did it give?
Its IC50 is less than 500 nM.

`CC#CCN1C(=O)c2ccc(Cl)cc2Sc2cc(NC(=O)C34CC(OC)(C3)C4)cnc21` was tested. Which IC50 did it give?
Its IC50 is less than 500 nM.

same assay, conditions: Table 9; HCT116, 72 hours; read-out: Activity

How did the IC50 turn out when `CO[C@H]1C[C@@H](C(=O)Nc2ccc3c(c2)Cc2ccccc2C(=O)N3CC#CC2CC2)C1` [Table 9: —CH2CCCPr; cis-3-MeOcBu; CH2] was run?
The IC50 was less than 500 nM.

For `CC#CCN1C(=O)c2ccccc2C(C)c2cc(NC(=O)C3COC3)ccc21` (stereo not drawn) [Table 9: —CH2CCMe; oxetan-3-yl; CHMe], which IC50 is on record?
The IC50 was less than 500 nM.

`O=C(Nc1ccc2c(c1)Cc1ccccc1C(=O)N2CC#CC1CC1)C1CC2(CC(=NO)C2)C1` (stereo not drawn) was tested. Which IC50 did it give?
The IC50 was less than 500 nM.

With `COCC1CC(C(=O)Nc2ccc3c(c2)Cc2ccccc2C(=O)N3CC#CC2CC2)C1` (stereo not drawn) [Table 9: —CH2CCCPr; 3-MeOCH2-cBu; CH2] as the compound, how does the IC50 read?
Its IC50 is less than 500 nM.

Which IC50 does the source give for `N#CC1c2ccccc2C(=O)N(CC#CC2CC2)c2ccc(NC(=O)[C@H]3C[C@@H]3CO)cc21` (relative stereo) here?
Its IC50 is less than 500 nM.

Which IC50 does the source give for `COC12CC(C(=O)Nc3ccc4c(c3)C(C#N)c3ccccc3C(=O)N4CC#CCF)(C1)C2` (stereo not drawn) here?
The IC50 was less than 500 nM.

same assay, conditions: cell viability assay; Table 10 analogs of scaffold drawing 45 defined by R2, R3, X/Y, W; read-out: Activity

`CC#CCN1C(=O)c2ccc(Cl)cc2Sc2cc(NC(=O)C3CC4(CC(O)C4)C3)ccc21` (stereo not drawn) was tested. Which IC50 did it give?
The IC50 was less than 500 nM.

tested on: p53 and p21; assay: p53 and p21 protein levels in HCT116 cells; assay type: cell-based, human; conditions: not given
Description: Inhibition of 60S ribosome biogenesis is known to induce the stability and upregulation of p53, which could serve as a potential pharmacodynamics marker for MM017 in HCT116 cells. […] We used PRISM (Broad Institute) to evaluate the selectivity of MM017 across 902 cancer cell lines and then correlated this selectivity to 1,215 clinical and pre-clinical compounds in the PRISM database. […] These observations indicate that oxaliplatin and carmofur, like MM017, target ribosome biogenesis.

How did the “p53 levels in parental HCT116 cells” value turn out when `Cc1cnc(CNC(=O)c2c(=O)c3ccc(N4CCCN(C)CC4)nc3n3c2sc2ccccc23)cn1` [CX-5461, reference compound] was run?
Its value is “dose-dependent increase in the levels of p53”.

From US20260097047A1, “Small molecule inhibitors of the ribosome biogenesis factor NVL2” (Board of Regents, The University of Texas System, priority 2023, published 2026)
